Test results from ChEMBL document CHEMBL3507680, “University of Dundee, Gates Library screen for HepG2 cell viability”.

assay: Human HepG2 cell viability assay in 384 well format; format: toxicity, cell-based; set-up: dose 125 nL, time 70.5 hour; cytotoxicity at 70.5 h: concentration not given beside the values; conditions: HepG2 cells, read-out: Inhibition

| SMILES | cytotoxicity at 70.5 h [%] |
| --- | --- |
| CN(Cc1n[nH]c(=O)n1Cc1ccccc1F)S(C)(=O)=O | 5.65 |
| Cc1cc(C(=O)NS(C)(=O)=O)c(C)n1-c1ccccc1 | -13.1 |
| OC1(CN2CCCC2)COCCN(c2ncnc3[nH]cnc23)C1 (configuration not stated) | -0.684 |
| CCS(=O)(=O)N1CCC(Nc2ccc(C#N)cc2F)CC1 | -10.9 |
| CN(CCc1ccc(F)cc1)Cc1nc2c(cnn2C)c(=O)[nH]1 | 11.7 |
| CC(C)Cc1ncc2c(n1)CN(c1cc(NC3CC3)nc(N)n1)C2 | 0.238 |
| CC(O)CN1CCN(C(=O)CN(C)c2ccc(C#N)cn2)CC1 (configuration not stated) | 10.3 |
| COCCNC(=O)CN1CCC(N2CCN(C)C2=O)CC1 | -13.2 |
| Cc1nc(CO[C@@H]2CN(Cc3cccs3)[C@@H]3COC[C@@H]32)cs1 | -9.88 |
| CC(C)n1cc(C(=O)NCCN(C)C)c2n[nH]c(=O)c-2c1 | 1.2 |
| O=C(CCc1ccsc1)NC1CCN(c2cccc(F)c2)CC1 | 4.39 |
| COC(=O)CNC(=O)C12CCC(=O)N1c1cc(Cl)ccc1S2 (configuration not stated) | -1.84 |
| O[C@H]1CN(c2nc(-c3ccccc3)no2)C[C@@H]1N1CCOCC1 | 6.13 |
| Cn1ncc(Cl)c1C(=O)N1CCC(c2nnsc2S(C)(=O)=O)CC1 | 7.94 |
| Cc1cc(C(=O)N2CCCC3(COCCN(c4ncccn4)C3)C2)[nH]n1 (configuration not stated) | -6.04 |
| CC(=O)NC1CCN(c2nc(C)nc3c2c(C)nn3C)C1 (configuration not stated) | 20.8 |
| COc1ncccc1C(=O)N1CCCC(n2ccnc2C)C1 (configuration not stated) | -10.3 |
| CCc1n[nH]c(C(=O)N2CCN(c3ccc4ccccc4c3)CC2)c1C | -6.66 |
| Cc1ccc(C(=O)N2C[C@H](N3CCOCC3)[C@@H]3OCCC[C@@H]32)cn1 | -9.11 |
| Fc1ccc(CN2CC[C@H]3O[C@@H](COCC4CCOCC4)CC[C@H]32)cc1 | 18.1 |
| CC(=O)c1ccccc1-c1cc(C(=O)O)cc(S(=O)(=O)NC(C)C)c1 | -14.9 |
| CCn1nc2c(cc1=O)CN(c1ncnc3sccc13)CC2 | -11.4 |
| O=C(C1CC1)N1CCc2nc(C3CCN(C(=O)C4CC4)C3)nc(O)c2C1 (configuration not stated) | -10 |

| SMILES | cytotoxicity at 70.5 h [%] |
| --- | --- |
| Cc1nc(N2CCOCC2)nc2c1CCN(C(=O)C1CCCCC1)CC2 | 0.0722 |
| COc1cc(C#N)ccc1OCC(=O)NS(=O)(=O)c1cccnc1 | -7.29 |
| CN1CCCN(C(=O)c2cc(CN(C)CCc3ccccc3)on2)CC1 | -10.4 |
| Cc1cc(N2CCSCC2)ccc1NC(=O)N(CCO)C1CC1 | -5.59 |
| O=C(CCS(=O)(=O)C1CCCC1)N1CCCC(n2ccnc2)C1 (configuration not stated) | 6.79 |
| CNc1cnc(CC2COCCN(Cc3cccc(C)n3)C2)cn1 (configuration not stated) | -2.94 |
| CC(c1ccc(Br)cc1)N1CCCN(C(N)=O)CC1 (configuration not stated) | -5.26 |
| CCC(C)N1Cc2c(C(=O)N3CCCC3)nn(C)c2C1 (configuration not stated) | -2.34 |
| Cn1c2c(ccc1=O)CC(NC(=O)c1ccsc1)CC2 (configuration not stated) | -2.29 |
| O=C(C1CCOCC1)N1C[C@@H](F)[C@@H](OCc2nc3cc(F)ccc3[nH]2)C1 | -2.48 |
| CN(C)c1ncc2c(O)nc(C3CCNCC3)cc2n1 | -6.95 |
| O=C(c1ccccn1)N1CCC(Oc2ncccc2Cl)CC1 | -2.05 |
| O=C1NC2(CCN(C(=O)N3CCOCC3)CC2)CC1c1cccnc1 (configuration not stated) | 3.42 |
| Fc1ccc(CN2CCCCC2Cn2cncn2)c2ncccc12 (configuration not stated) | 25.5 |
| CC[C@H](C)[C@@H](CO)NC(C)Cc1ccc(Cl)cc1 (some centres not stated) | -2.7 |
| CSCc1cccc(S(=O)(=O)N2CCSCC2)c1 | -4.49 |
| CC(C)n1cc(S(=O)(=O)N2CCCCC2)cn1 | 9.02 |
| O=C(NCC1(N2CCOCC2)CCSC1)Nc1ccncc1 (configuration not stated) | -6.91 |
| O=S(=O)(c1cccs1)N1CCC(c2nc(-c3cccs3)no2)CC1 | 1.6 |
| O=C(c1ccncc1)N(CCO)Cc1cc(Br)ccc1F | -10.4 |
| Cc1ccc(CN2CC(C(=O)NCC3CC3)C3(CCOCC3)C2)s1 (configuration not stated) | -7.98 |
| Cc1cnc(N2CC[C@@H](N3CCOCC3)[C@@H]2Cc2ccncc2)nc1 | -1.98 |
| Cn1ccnc1CN1CCN(Cc2ccccc2)[C@@H]2CS(=O)(=O)C[C@@H]21 | -9.92 |

| SMILES | cytotoxicity at 70.5 h [%] |
| --- | --- |
| NCCn1cc(C(=O)NCc2ccccc2Cn2cccn2)nn1 | -6.05 |
| Cc1noc(Cl)c1CC(=O)NCC(C)(O)c1ccc(F)cc1F (configuration not stated) | 10.7 |
| CN(C)c1ccc(NC(=O)NCc2cccnc2N(C)C)cn1 | -8.32 |
| Cc1ccc(-c2cc(CN3CCc4cnc(C)nc4C3)on2)cc1 | -10.1 |
| CN1CCN(CCNC(=O)c2sccc2C2CC2)CC1 | -2.66 |
| CN1CCC(N2CCN3C(=O)NC[C@H]3C2)CC1 | -3.25 |
| O=S(=O)(NC1CCCCC12OCCO2)c1cc(Cl)cc(Cl)c1 (configuration not stated) | -3.17 |
| Cc1nn(C)c(C)c1C1COCCN1C(=O)CSC(C)(C)C (configuration not stated) | -18.7 |
| COc1cccc2c1OCC(NCc1cnn(-c3ccccc3F)c1)C2 (configuration not stated) | -0.785 |
| CC(c1cccnc1)N1CCN(CCCC#N)CC1 (configuration not stated) | 15 |
| CCN(CCCNc1ncnc2cc(F)c(F)cc12)S(C)(=O)=O | -1.36 |
| C/C=C(\C)CN1CCCn2nc(CNC(=O)C3CCC3)cc2C1 | -11.6 |
| c1cc(CNCC2CNc3ccnn3C2)cc(N2CCOCC2)n1 (configuration not stated) | -5.11 |
| CNC(=O)c1cccc(CNC(C)c2cc(Cl)ccc2OC)c1 (configuration not stated) | -2.03 |
| CCCOc1ccc(C(=O)N2CCN3CCNC(=O)C3C2)cc1Cl (configuration not stated) | -8.43 |
| CC(C)OCC(=O)N1CCC(c2ncncc2-c2ccnc(N)c2)C1 (configuration not stated) | -5.98 |
| CCn1ncc2c(C(F)F)cc(-c3ccn(C)n3)nc21 | -7.69 |
| CN(Cc1ccc(Cl)c(Cl)c1)C(=O)CNC(N)=O | 0.00328 |
| CC(C)Cn1c2c(ccc1=O)CC(N)CC2 (configuration not stated) | -3.16 |
| CC(=O)N1CCCC(c2ccc3sc(N)nc3n2)C1 (configuration not stated) | -8.18 |
| CC(C)N(C)Cc1noc2c1CN(C(=O)c1cnccn1)CC2 | -1.15 |
| Cc1[nH]c2ccccc2c1-c1ccnc(N[C@@H](CO)C(C)C)n1 | -3.22 |
| CCN1C(=O)C(C)(C)c2cc(NC(=O)c3ccco3)ccc21 | -7.99 |

| SMILES | cytotoxicity at 70.5 h [%] |
| --- | --- |
| CC1CCN(C(=O)C2CC(=O)N(c3cnn(C(C)C)c3)C2)CC1 (configuration not stated) | -13.2 |
| O=C(c1csc(-c2ccco2)n1)N1CCN2CCCCC2C1 (configuration not stated) | -4.49 |
| CC(C)(CN1CCCC1)CN1CCC(Cn2cc(CCO)nn2)CC1 | 18.9 |
| CN(Cc1ccco1)C[C@H]1OC[C@@H]2CCN(Cc3ccncc3)C[C@@H]21 | 15.7 |
| CCc1nncn1CCNC(=O)N1CCN(Cc2ccccc2)CC1 | 3.82 |
| Cc1cc(CN2CCC(C3CCN(CCc4ccccc4)C3)CC2)[nH]n1 (configuration not stated) | -0.374 |
| CC(C)c1cncnc1N1CC[C@H](N2CCOCC2)[C@H](CCCO)C1 | -9.63 |
| Cc1cc(C)nc(Nc2cccc(C3CCCN(C(C)C)C3)n2)n1 (configuration not stated) | -6.28 |
| CC(C)c1nc(C(=O)N2C[C@H](C(C)C)[C@@H](N)C2)cs1 | -0.955 |
| O=C(c1ccc2c(c1)[nH]c(=O)n2[C@H]1CC[C@H](O)CC1)N1CCOCC1 | -12.1 |
| COc1cc(CNC(=O)C(C)SC)cc(Br)c1OC (configuration not stated) | -8.14 |
| Cc1ccc(=O)n(CC(=O)N(C)Cc2csc(-c3cccs3)n2)n1 | -7.16 |
| CC1c2ncc(CN3CCN(C)CC3)n2CCN1Cc1ccccn1 (configuration not stated) | -0.798 |
| CS(=O)(=O)N1C[C@H]2CNC[C@@]2(C(=O)NCCCc2ccccc2)C1 | -3.07 |
| CSCCC(=O)N1CCCN(c2ccccc2C)CC1 | 13.3 |
| CN(C)C(=O)NCC(=O)N(C)Cc1cc(-c2ccccc2)no1 | 22 |
| Cc1ccccc1-c1noc(CN2CCC(N3CCNC3=O)CC2)n1 | 40.4 |
| CC(C)CC(O)C1CCN(C(=O)c2ccc(C(F)(F)F)nc2O)CC1 (configuration not stated) | -5.89 |
| O=C1Cc2cc(NC(=O)N3CCCN(Cc4cccs4)CC3)ccc2N1 | -4.49 |
| COc1ccc(OC)c(C2CCN(c3ccc4cc[nH]c4n3)C2)c1 (configuration not stated) | -6.46 |
| CC(CCS(C)(=O)=O)NC(=O)NCc1ccc2c(c1)CCC2 (configuration not stated) | -6.48 |
| COc1ccc(NC(=O)CCn2nc(-c3cccs3)oc2=O)cc1OC | -5.48 |
| Cc1cncc(C2CCN(Cc3cnc(C)nc3)CC2)n1 | -7.22 |

| SMILES | cytotoxicity at 70.5 h [%] |
| --- | --- |
| Cc1occc1C(=O)Nc1cccc(C(=O)OCC2CCCN2)c1 (configuration not stated) | 23.7 |
| CN(CCO)Cc1nnc(C2CCN(C(=O)C(C)(C)C)CC2)n1C | -4.92 |
| O=C1CCCN1Cc1nnc2n1CCCN(Cc1ccco1)C2 | -0.266 |
| N#CC1CCCN(S(=O)(=O)c2ccc(C(=O)NCC(F)F)cc2)C1 (configuration not stated) | 3.7 |
| CC(C)n1cc(CN2CCCN(C(=O)c3ccoc3)CC2)cn1 | 27.6 |
| Cn1c2c(c(=O)n1C)CN(C(=O)c1ccsc1)CCC2 | -0.418 |
| O=C(NC[C@H]1OC[C@@H](NC2CCNCC2)[C@@H]1O)C1CCCC1 | -5.05 |
| Cc1cccc(COC[C@]23COC[C@H]2CN(C(=O)c2ccsc2)C3)n1 | 2.91 |
| CCN(Cc1cc(F)ccc1Cl)C1CCS(=O)(=O)C1 (configuration not stated) | 29.9 |
| CN1N=C(C(=O)Nc2cc(F)ccc2OCC2CCCO2)CCC1=O (configuration not stated) | -20.2 |
| Cc1nc(C)c(S(=O)(=O)NC(=O)c2cccs2)s1 | -4.64 |
| Cc1cc(=O)n(C)cc1NC(=O)Cc1cccc(Cl)c1 | -0.253 |
| CC(C)NC(=O)[C@H]1C[C@@H]2[C@@H](C1)OCCN2Cc1ccco1 | -8.12 |
| Cc1cc(C)n(CC2CN(CC(=O)N3CCNC3=O)CCO2)n1 (configuration not stated) | -1.37 |
| CN1CCN(Cc2cccc(NCc3ncc[nH]3)c2)CC1 | 8 |
| Cc1nc(N)sc1C(=O)N[C@H]1CN(CCO)C[C@@H]1C1CC1 | -2.54 |
| CC1Oc2ccc(S(=O)(=O)NCCCn3ccnc3)cc2NC1=O (configuration not stated) | -3.81 |
| CC1(NC(=O)Cc2csc(-c3ccccc3Cl)n2)CCS(=O)(=O)C1 (configuration not stated) | -88.9 |
| CCOc1ccc(CN2CCC(c3nc(C)cc(C)n3)C2)cc1CO (configuration not stated) | 2.12 |
| O=C(CCOCc1ccccc1)NS(=O)(=O)N1CCOc2ccccc21 | 11 |
